Results taken from ChEMBL document CHEMBL1121905, “erythro-5-[1-Hydroxy-2-(isopropylamino)butyl]-7-hydroxycarbostyril, a terbutaline-type derivative of the bronchodilator procaterol” (1981).

Legend:
Canis familiaris [1] = assay: Compound was tested in anesthetized dogs for inhibition of bronchoconstriction (equipotent dose at ED50) Mean ED50 value, obtained at a dose of 0.054 ug/kg; format: functional; conditions: Canis lupus familiaris, Lung
Cavia porcellus [2] = species on record: Cavia porcellus; assay: Compound was tested for effective dose required for 50% of maximum response in guinea pig trachea; format: functional; conditions: read-out: ED50 (the source's name)
Cavia porcellus [3] = species on record: Cavia porcellus; assay: Compound was tested for effective dose required for 25% of maximum response in guinea pig right atrium; maximal activity was obtained at 1 x 10 e-5 mol/L
Cavia porcellus [4] = species on record: Cavia porcellus; assay: Intrinsic activity in guinea pig trachea; format: functional
Canis familiaris [5] = assay: Compound was tested in anesthetized dogs for increase in heart rate (equipotent dose at ED25) Mean ED25 value, obtained at a dose of 0.021 ug/kg; format: functional; conditions: Canis lupus familiaris
Cavia porcellus [6] = species on record: Cavia porcellus; assay: Compound was tested for effective dose required for 25% of maximum response in guinea pig right atrium
Cavia porcellus [7] = species on record: Cavia porcellus; assay: Intrinsic activity (n=5) in guinea pig right atrium

Compound	ED50 (Canis familiaris [1])	EC50 (Cavia porcellus [2])	ED25 (Cavia porcellus [3])	Intrinsic activity (Cavia porcellus [4])	ED25 (Canis familiaris [5])	ED25 (Cavia porcellus [6])	Intrinsic activity (Cavia porcellus [7])
CCC(NC(C)C)C(O)c1cc(O)cc2nc(O)ccc12 (configuration not stated)	0.0417 mg/kg	225 nM	maximal activity was obtained at 1 x 10 e-5 mol/L	0.5	0.0871 mg/kg		
CCC(NC(C)C)C(O)c1ccc(O)c2[nH]c(=O)ccc12 (configuration not stated) [PROCATEROL]		11 nM		0.98		5.7 nM	0.6
CC(C)NCC(O)c1ccc(O)c(O)c1 (configuration not stated) [ISOPROTERENOL]	0.001 mg/kg				0.001 mg/kg		
CC(C)(C)NCC(O)c1cc(O)cc(O)c1 (configuration not stated) [TERBUTALINE]				0.7			0.73
CCC(NC(C)C)C(O)c1cc(O)cc2c1CCC(=O)N2 (configuration not stated)		1220 nM		0.6		566 nM	0.27
